Series [1] deals with T1, human amylin receptor (Homo sapiens, UniProt O60896+P30988).
T1 construct: expressed in transfected cells
T1 sequence (P30988 25-474): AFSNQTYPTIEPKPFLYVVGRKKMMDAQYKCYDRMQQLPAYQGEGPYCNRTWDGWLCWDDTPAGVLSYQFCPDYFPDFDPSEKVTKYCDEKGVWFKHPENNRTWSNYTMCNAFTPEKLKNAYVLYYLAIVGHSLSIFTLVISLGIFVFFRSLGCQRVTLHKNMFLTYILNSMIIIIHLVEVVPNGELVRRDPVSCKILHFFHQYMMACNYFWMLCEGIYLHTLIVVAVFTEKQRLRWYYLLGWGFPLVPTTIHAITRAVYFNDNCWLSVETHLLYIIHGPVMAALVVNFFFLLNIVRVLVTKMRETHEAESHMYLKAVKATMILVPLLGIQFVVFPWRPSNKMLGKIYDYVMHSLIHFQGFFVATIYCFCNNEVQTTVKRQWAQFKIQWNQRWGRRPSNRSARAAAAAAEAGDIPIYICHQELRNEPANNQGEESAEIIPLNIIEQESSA
T1 sequence (O60896 24-148 partner): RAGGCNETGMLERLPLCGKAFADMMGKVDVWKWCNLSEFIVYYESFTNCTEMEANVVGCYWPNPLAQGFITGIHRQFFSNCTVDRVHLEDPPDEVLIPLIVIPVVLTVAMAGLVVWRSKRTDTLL
The series is described as follows: Assay (V) binding to the human amylin receptor (SPA, 125I-rat amylin). As to conditions: human amylin receptor membranes, SPA; read-out: hAmylin-R bind IC50. Summed up:
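SPA competition binding on membranes from Amylin 3(a)/CRE-luc cells, 35 ng/μL membranes with 0.05 mg/well beads. Buffer 50 mM Hepes pH 7.4, 1 mM CaCl2, 5 mM MgCl2, 0.1% OA, 0.02% Tween20. IC50 from one-site competition fit as affinity measure.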

In series [2] the target is T2, human calcitonin receptor (Homo sapiens, UniProt P30988).
T2 construct: expressed in transfected cells
T2 sequence (P30988 25-474): T1 sequence (P30988 25-474)
The series is described as follows: Assay (II)a functional assay, human calcitonin receptor (CRE luciferase, BHK cells).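 Also: luminescence from a CRE-driven luciferase reporter, read by single photon counting after cells were exposed to test samples for 3 h at 37 °C under 5% CO2.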 The class given is cell-based. As to conditions: read-out: hCTR funct. EC50.

Series [3] can be described thus: Assay (IV) determination of solubility. The class given is physicochemical. The note with it: for Solubility pH 6.5 Concentration (μM): pH 6.5, 18 hours room temperature; for Solubility pH 7.0 Concentration (μM): pH 7.0, 18 hours room temperature; for Solubility pH 7.5 Concentration (μM): pH 7.5, 18 hours room temperature; for Solubility pH 8.0 Concentration (μM): pH 8.0, 18 hours room temperature. The procedure: Assay (IV)—Determination of Solubility
The polypeptide was dissolved in water at ˜500 nmol/ml and mixed 1:1 with a series of buffers (100 mM glycylglycine pH 3.0, 100 mM glycylglycine pH 4.0, 100 mM glycylglycine pH 5.0, 100 mM bistrispropane pH 6.0, 100 mM bistrispropane pH 6.5, 100 mM bistrispropane pH 7.0, 100 mM bistrispropane pH 7.5, 100 mM bistrispropane pH 8.0). After 18 hours at room temperature the samples were centrifuged and the polypeptide concentration determined by UPLC.

Series [4] concerns the target T3, human amylin receptor (amylin 3(a) receptor: human calcitonin receptor + RAMP-3) (Homo sapiens, UniProt O60896+P30988).
T3 construct: expressed in transfected cells
T3 sequence (P30988 25-474): T1 sequence (P30988 25-474)
T3 sequence (O60896 24-148 partner): T1 sequence (O60896 24-148 partner)
The series is described as follows: Assay (II)a functional assay, human amylin receptor (CRE luciferase, BHK cells). The class given is cell-based. As to conditions: functional assay, human amylin receptor; read-out: hAmylin-R funct. EC50.

Series [5] addresses T2, human calcitonin receptor. The experiment in a line: Assay (VII) binding to the human calcitonin receptor (SPA, 125I-Calcitonin).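 Also: cell membranes coupled to SPA beads, competitive displacement read by scintillation counting, IC50 derived from a one-site competition fit as a measure of receptor affinity.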 The note with it: read-out: hCTR bind IC50.

Numbered stars: 1 amine (or outer) side, 2 acyl side, 3 side chain; on linkers, the order of the positions; unused ones are H or OH. Bridge positions count the residues as written; N and C are the ends. Side chains are listed from the residue outwards. Peptide text beside a SMILES is read from it. * marks the point of attachment. C20 diacid = O=C(O)CCCCCCCCCCCCCCCCCCC(=O)*; γGlu = O=C(O)[C@H](CCC(=O)[*:2])N[*:1]; AEEA = NCCOCCOCC(=O)O

The IC50 is the concentration that inhibits the measured activity by half. By EC50 is commonly meant the concentration at which the effect is half-maximal. For the molecule `CC[C@H](C)[C@H](NC(=O)[C@H](C)NC(=O)CNC(=O)[C@H](Cc1ccccc1)NC(=O)[C@H](CC(N)=O)NC(=O)[C@@H]1CCCN1C(=O)[C@H](CO)NC(=O)[C@H](CO)NC(=O)[C@H](Cc1c[nH]cn1)NC(=O)[C@H](CCCNC(=N)N)NC(=O)[C@H](CC(C)C)NC(=O)[C@H](Cc1ccccc1)NC(=O)[C@H](CC(N)=O)NC(=O)[C@H](C)NC(=O)[C@H](CC(C)C)NC(=O)[C@H](CCCNC(=N)N)NC(=O)[C@H](CCC(N)=O)NC(=O)[C@@H](NC(=O)[C@H](C)NC(=O)[C@@H]1CSSC[C@H](NC(=O)[C@@H](N)CCCCNC(=O)COCCOCCNC(=O)CC[C@H](NC(=O)CCCCCCCCCCCCCCCCCCC(=O)O)C(=O)O)C(=O)N[C@@H](CC(N)=O)C(=O)N[C@@H]([C@@H](C)O)C(=O)N[C@@H](C)C(=O)N[C@@H]([C@@H](C)O)C(=O)N1)[C@@H](C)O)C(=O)N1CCC[C@H]1C(=O)N[C@@H](CO)C(=O)N[C@@H](CO)C(=O)N[C@H](C(=O)N[C@@H](CC(N)=O)C(=O)N[C@H](C(=O)NCC(=O)N1CCC[C@H]1C(=O)N[C@@H](Cc1c[nH]cn1)C(=O)N[C@H](C(=O)N[C@@H](Cc1ccc(O)cc1)C(N)=O)[C@@H](C)O)C(C)C)[C@@H](C)O` [Example 58] (H-K([AEEA-γGlu-C20 diacid])CNTATCATQRLANFLRHSSPNFGAIPSSTNVGPHTY-NH2; disulfide 2-7), in series [1], the IC50 came out at 0.088 nM. In addition, the EC50 in series [2] is 1.03 nM. Moreover, in series [3], the “Solubility pH 6.5 Concentration (μM)” value is recorded as “≧200 μM”, the “Solubility pH 7.0 Concentration (μM)” value is given as “≧200 μM”, the “Solubility pH 7.5 Concentration (μM)” value is 96 μM and the “Solubility pH 8.0 Concentration (μM)” value amounted to 48 μM. Besides, in series [4], the EC50 is 0.047 nM. Moreover, the IC50 in series [5] stood at 9.63 nM.
With `CC[C@H](C)[C@H](NC(=O)[C@H](C)NC(=O)CNC(=O)[C@H](Cc1ccccc1)NC(=O)[C@H](CC(N)=O)NC(=O)[C@@H]1CCCN1C(=O)[C@H](CO)NC(=O)[C@H](CO)NC(=O)[C@H](Cc1c[nH]cn1)NC(=O)[C@H](CCCNC(=N)N)NC(=O)[C@H](CC(C)C)NC(=O)[C@H](Cc1ccccc1)NC(=O)[C@H](CC(N)=O)NC(=O)[C@H](C)NC(=O)[C@H](CC(C)C)NC(=O)[C@H](CCCNC(=N)N)NC(=O)[C@H](CCC(N)=O)NC(=O)[C@@H](NC(=O)[C@H](C)NC(=O)[C@@H]1CSSC[C@H](NC(=O)[C@@H](N)CCCCNC(=O)CC[C@H](NC(=O)CCCCCCCCCCCCCCCCCCC(=O)O)C(=O)O)C(=O)N[C@@H](CC(N)=O)C(=O)N[C@@H]([C@@H](C)O)C(=O)N[C@@H](C)C(=O)N[C@@H]([C@@H](C)O)C(=O)N1)[C@@H](C)O)C(=O)N1CCC[C@H]1C(=O)N[C@@H](CO)C(=O)N[C@@H](CO)C(=O)N[C@H](C(=O)N[C@@H](CC(N)=O)C(=O)N[C@H](C(=O)NCC(=O)N[C@@H](Cc1c[nH]cn1)C(=O)N[C@@H](CC(N)=O)C(=O)N[C@H](C(=O)N[C@@H](Cc1ccc(O)cc1)C(N)=O)[C@@H](C)O)C(C)C)[C@@H](C)O` [Example 77], in series [1], the IC50 turned out to be 0.428 nM. Also, the concentration giving a half-maximal response (EC50) in series [2] was 5.4 nM. Besides, in series [3], the “Solubility pH 6.5 Concentration (μM)” value is given as “≧200 μM”, the “Solubility pH 7.0 Concentration (μM)” value was “≧200 μM”, the “Solubility pH 7.5 Concentration (μM)” value worked out at 147 μM and the “Solubility pH 8.0 Concentration (μM)” value came out at 59 μM. The half-maximal effective concentration (EC50) in series [4] was found to be 0.145 nM. Moreover, the IC50 in series [5] was found to be 50.7 nM.

These data come from patent publication US8575091B1, “Amylin analogues and pharmaceutical compositions thereof” (Novo Nordisk A/S, priority 2012, dated 2013).
